Measurements taken from US8829007B2 (priority 2009, dated 2014).
Read-outs that look alike come from different tables or passages of the source.

Key:
[1] = test system: influenza A virus (A/PR/8/34); assay: microbe, parasite or virus in culture; format: cell-based
[2] = test system: A/PR/8/34 influenza virus; assay: microbe, parasite or virus in culture; format: cell-based
[3] = Influenza A virus, PR/8, MDCK, MDCK cells infected with A/PR/8/34, survival of infected cells, class symbols, read-out: IC50 (mean all)
[4] = Influenza A virus, PR/8, MDCK, MDCK cells infected with A/PR/8/34, replication of influenza virus (viral RNA, bDNA), class symbols, read-out: EC50 (mean all)
[5] = Influenza A virus, PR/8, MDCK, mean all, A/PR/8/34 infected MDCK cells, CPE assay, read-out: IC50
[6] = Influenza A virus, PR/8, MDCK, mean all, A/PR/8/34 influenza virus in MDCK cells, bDNA assay, read-out: EC50
[7] = Influenza A virus, PR/8, MDCK, MDCK cells infected with A/PR/8/34, cell protection (CPE), read-out: IC50 (mean all)
[8] = Influenza A virus, PR/8, MDCK, MDCK cells infected with A/PR/8/34, bDNA viral RNA, read-out: EC50 (mean all)

COCC(O)CN1CCCC(Nc2nc(-c3c[nH]c4ncc(Cl)cc34)ncc2F)C1 [Compound 537, 1-((S)-3-((2-(5-chloro-1H-pyrrolo[2,3-b]pyridin-3-yl)-5-fluoropyrimidin-4-ylamino)piperidin-1-yl)-3-methoxypropan-2-ol]
IC50 [1, 3]: < 5 µM | EC50 [2, 4]: < 5 µM

CS(=O)(=O)N1CCCC[C@@H]1CNc1nc(-c2c[nH]c3ncc(Cl)cc23)ncc1F [Compound 381, (R)-2-(5-chloro-1H-pyrrolo[2,3-b]pyridin-3-yl)-5-fluoro-N-((1-(methylsulfonyl)-piperidin-2-yl)methyl)pyrimidin-4-amine]
IC50 [1, 5]: < 5 µM | EC50 [2, 6]: < 5 µM

CCCNC(=O)N1CCC[C@H](Nc2nc(-c3c[nH]c4ncc(Cl)cc34)ncc2F)C1 [Compound 324]
IC50 [1, 5]: 5 to 20 µM | EC50 [2, 6]: < 5 µM

COCC(=O)N1CCC[C@@H](CNc2nc(-c3c[nH]c4ncc(Cl)cc34)ncc2F)C1 [Compound 45, (S)-1-(3-((2-(5-chloro-1H-pyrrolo[2,3-b]pyridin-3-yl)-5-fluoropyrimidin-4-ylamino)methyl)piperidin-1-yl)-2-methoxyethanone]
IC50 [1, 7]: < 5 µM | EC50 [2, 8]: < 5 µM

O=C(c1cc2ccccc2s1)N1CCC[C@H](CNc2nc(-c3c[nH]c4ncc(Cl)cc34)ncc2F)C1 [Compound 107, (R)-benzo[b]thiophen-2-yl(3-((2-(5-chloro-1H-pyrrolo[2,3-b]pyridin-3-yl)-5-fluoropyrimidin-4-ylamino)methyl)piperidin-1-yl)methanone]
IC50 [1, 7]: < 5 µM | EC50 [2, 8]: < 5 µM

COCCNC(=O)C(C)(C)N1CCC[C@H](Nc2nc(-c3c[nH]c4ncc(Cl)cc34)ncc2F)C1 [Compound 601]
IC50 ([1]; Influenza A virus, PR/8, MDCK, CPE assay, A/PR/8/34 infected MDCK cells, class symbols, read-out: IC50 (mean all)): < 5 µM | EC50 ([2]; Influenza A virus, PR/8, MDCK, bDNA assay, A/PR/8/34 influenza virus replication in MDCK cells, class symbols, read-out: EC50 (mean all)): < 5 µM

CC(C)OC(=O)[C@H]1CCCC[C@@H]1Nc1nc(-c2c[nH]c3ncc(Cl)cc23)ncc1F [Compound 569, (1S,2S)-isopropyl 2-(2-(5-chloro-1H-pyrrolo[2,3-b]pyridin-3-yl)-5-fluoropyrimidin-4-ylamino)cyclohexanecarboxylate]
IC50 [1, 3]: > 10 µM | EC50 [2, 4]: > 10 µM

CCOC(=O)N1CCCC[C@H]1CNc1nc(-c2c[nH]c3ncc(Cl)cc23)ncc1F [Compound 171, (S)-ethyl 2-((2-(5-chloro-1H-pyrrolo[2,3-b]pyridin-3-yl)-5-fluoropyrimidin-4-ylamino)methyl)piperidine-1-carboxylate]
IC50 [1, 7]: > 20 µM | EC50 [2, 8]: 5 to 10 µM

O=C(O)[C@H]1CCCC[C@@H]1Nc1nc(-c2c[nH]c3ncc(Cl)cc23)ncc1F (racemic) [Compound 541, Trans-2-(2-(5-chloro-1H-pyrrolo[2,3-b]pyridin-3-yl)-5-fluoropyrimidin-4-ylamino)cyclohexanecarboxylic acid]
IC50 [1, 3]: < 5 µM | EC50 [2, 4]: < 5 µM

O=C(C1CC1)N1CCC[C@@H](Nc2nc(-c3c[nH]c4ncc(Cl)cc34)ncc2F)C1 [Compound 317]
IC50 [1, 5]: 5 to 20 µM | EC50 [2, 6]: < 5 µM

N[C@H]1CCC[C@@H](Nc2nc(-c3c[nH]c4ncc(Cl)cc34)ncc2F)C1 [Compound 542, (1R,3S)—N1-[2-(5-chloro-1H-pyrrolo[2,3-b]pyridin-3-yl)-5-fluoro-pyrimidin-4-yl]cyclohexane-1,3-diamine]
IC50 [1, 3]: 5 to 20 µM | EC50 [2, 4]: 5 to 10 µM

OCC(O)C[C@@]1(O)CCCC(Nc2nc(-c3c[nH]c4ncc(Cl)cc34)ncc2F)C1 (stereo partly drawn) [Compound 718]
IC50 ([1]; Influenza A virus, PR/8, MDCK, mean all, MDCK cells infected with A/PR/8/34, cell protection (CPE), read-out: IC50): < 5 µM | EC50 ([2]; Influenza A virus, PR/8, MDCK, mean all, bDNA viral RNA in MDCK cells infected with A/PR/8/34, read-out: EC50): < 5 µM

O=C(O)C1CNCCC1Nc1nc(-c2c[nH]c3ncc(Cl)cc23)ncc1F (stereo not drawn) [Compound 605]
IC50 ([1]; CPE assay, A/PR/8/34 infected MDCK cells, class symbols, read-out: IC50 (mean all)): > 10 µM | EC50 ([2]; bDNA assay, A/PR/8/34 influenza virus replication in MDCK cells, class symbols, read-out: EC50 (mean all)): > 3.3 µM

C=CCNC(=O)N1CCC[C@@H](CNc2nc(-c3c[nH]c4ncc(Cl)cc34)ncc2F)C1 [Compound 39, (S)—N-allyl-3-((2-(5-chloro-1H-pyrrolo[2,3-b]pyridin-3-yl)-5-fluoropyrimidin-4-ylamino)methyl)piperidine-1-carboxamide]
IC50 [1, 7]: < 5 µM | EC50 [2, 8]: < 5 µM

O=C1CC[C@H](C(=O)N2CCC[C@@H](CNc3nc(-c4c[nH]c5ncc(Cl)cc45)ncc3F)C2)O1 [Compound 51, (R)-5-((S)-3-((2-(5-chloro-1H-pyrrolo[2,3-b]pyridin-3-yl)-5-fluoropyrimidin-4-ylamino)methyl)piperidine-1-carbonyl)dihydrofuran-2(3H)-one]
IC50 [1, 7]: < 5 µM | EC50 [2, 8]: < 5 µM
